# Test results: EP0623616A1, “Heterocyclic compounds and process for the preparation thereof” (EGIS GYOGYSZERGYAR RT., priority 1993, dated 1994)
# Read-outs that look alike come from different tables or passages of the source.
# Legend:
# Male Wistar rats [1] = experiment: Vogel test (drinking conflict test); type: in vivo; conditions: for MED: minimum effective dose, increase of tolerated shocks, rats, intraperitoneally half an hour before testing
# Protocol: Male Wistar rats of 160 to 180 g body weight were kept free of food and drinking water for 24 and 48 hours, respectively. Test and carrier substances were administered intraperitoneally half an hour before testing. Animals within the experimental chamber were provided with drinking water through an inserted tube. After the animals' each twenty lapping for water the device emitted a 2 mA intensity electric shock through the drinking tube. During 5 minutes the shocks tolerated by the animals in order to quench their thirst were counted. The effect of treatment was expressed as the % increase of the tolerated shocks. The minimum effective dose (MED) was determined for each test compound [Vogel, J.R., Beer, B., Clody, D.E.:Psychopharmacologia (Berl.)21, 1(1971)].
# Male Wistar rats [2] = experiment: Conditioned avoidance response inhibition (shuttle box); type: in vivo; conditions: for Conditioned relfex ID50: rats, 50% inhibiting dose, dosing one hour before the measurement, oral
# Protocol: The antipsychotic (neuroleptic) effect was measured by the inhibition of the learned conditioned avoidance reflex. The male Wistar rats used for the study were of 120 to 150 g body weight at the beginning of learning. A shuttle box was used as experimental device, it consisted of two parts, 24x24,5x23 cm each, separated by a wall with a 6x9 cm gate. In response to a suitable warning stimulus, in order to avoid the punishing (unconditioned) stimulus, animals within the box passed through the gate from one part to the other. The warning, i.e. conditioned stimulus (CS), a white light (1 Hz) blinking for 15 seconds, was applied at the actual place of the animal. The unconditioned stimulus (US), in form of 0,6 mA intensity electric shock, was randomly applied to the paw during the last 5 seconds of the conditioned stimulus. The animal's movement during the CS and US from one part of the box to the other was defined as avoidance and escape response, respectively. Both responses ceased the actual stimulus and stopped the trial. The time elapsed until the next trial (intertrial interval, ITI) was 15 seconds. While one experiment was carried out daily, an experiment consisted of 80 trials. Learning efficiency was expresses as percentage of the successful to the total avoidances. Effect of the neuroleptic drugs was examined in animals with stabilized conditioned reflexes and with at least 75% learning efficiency. Dosing was carried out once a week, one hour before the measurement in the shuttle box. To calculate the neuroleptic effect (50% inhibiting dose, ID₅₀), the results obtained after the treatment were compared to those obtained on the previous day (controls).
# mice [3] = experiment: Effect on the spontaneous motor activity (method of Borsy et al., 10-channel Dews system); type: in vivo; conditions: for Mobility inhibition ID50: treated orally, 1 hour after treatment, interruptions of infrared beam within 30 minutes
# Protocol: The test was carried out according to the method of Borsy et al. Groups consisting of 3 mice each were treated orally with different doses of the compounds to be tested 1 hour after treatment with the test compound or the vehicle the animals were placed into a 10-channel Dews system equipment. In this equipment the number of interruptions of infrared beam within 30 minutes was counted. From these date 50% inhibiting doses (IC₅₀) were determined with the aid of a line of regression [Borsy, J., Csanyi, E., Lazar, I.: Arch. Int. Pharmacodyn. 124, a (1960)].
# [4] = system: Male rats belonging to the Spraghe Dawley strain; experiment: Elevated plus maze test on rat; type: in vivo; conditions: for MED: p.o., minimum effective dose causing a significant increase of time spent on the open arms, rats, pretreatment 60 minutes
# Protocol: The test was carried out with the aid of a wooden plus-shaped maze elevated to a height of 50 cm. Two arms (100 cm long and 15 cm wide) - opposite to one another - were enclosed up to a height of 40 cm along their longer sides and at the end. The other two arms were without walls (open arms). The central 15x15 cm part was open. Male rats belonging to the Spraghe Dawley strain and weighing 220 to 260 g were used as test animals. After pretreatment lasting 60 minutes the animals were placed into the central part of the maze. During the 5 minutes observation period the following parameters were recorded: • time spent on the open arms • time spent on the closed arms • number of open arm entries • number of closed arm entries.
# The drug effect was expressed as percent increase of the time spent on the open arms and number of open arm entries. The minimum effective dose which caused a significant increase of the time spent on the open arms was calculated for every substance [Pelow, S., Chopin, P., File, S.E., Briley, M.:J. Neurosci. Methods 14, 149-167 (1985)].
# mice [5] = conditions: value taken from literature (Drugs of Future 10(II), 731 (1985)); cited from earlier work
# Male Wistar rats [6] = conditions: value taken from literature (J. Med. Chem. 29(3), 363(1986); Drugs of Future 10(II), 731(1985)); cited from earlier work
# [7] = Vogel test, ratio of MED values
Compound,MED (Male Wistar rats [1]) [mg/kg],Conditioned relfex ID50 (Male Wistar rats [2]),Mobility inhibition ID50 (mice [3]),MED [4],further results
"8-{4-[4-(1,2-Benzisothiazol-3-yl)-1-piperazinyl]-but-2-ynyl}-8-azaspiro[4,5]decane-7,9-dione [Example 1]",5.0,"30,0 mg/kg",ineffective(>100) mg/kg,"2,5 mg/kg","effectiveness relative to chlorodiazepoxide (Male Wistar rats [1]; [7]): twice as effective; times as effective as Meprobamate (Male Wistar rats [1]; [7]): 5; influence on the conditioned avoidance response (Male Wistar rats [2]; up to an oral dose of 30 mg/kg, result in words): does not influence the conditioned avoidance response; influence on the spontaneous motor activity (mice [3]; result in words): does not influence the spontaneous motor activity; effectiveness relative to Ritanserin ([4]; elevated plus maze, ratio of MED values): twice as effective"
"O=C1CC2(CCCC2)CC(=O)N1CCCCN1CCN(c2nsc3ccccc23)CC1 [Thiaspiron, thiaspiron]",–,–,–,–,"Mobility inhibition ID50 (mice [5]): 8,4 mg/kg; Conditioned relfex ID50 (Male Wistar rats [6]): 10,5 mg/kg"
CCCC(C)(COC(N)=O)COC(N)=O [Meprobamate],25.0,–,–,">10,0 mg/kg",–
CN(C)CCCN1c2ccccc2Sc2ccc(Cl)cc21 [Chloropromazine],–,"13,2 mg/kg",–,–,–
Cc1nc2sccn2c(=O)c1CCN1CCC(=C(c2ccc(F)cc2)c2ccc(F)cc2)CC1 [Ritanserin],–,–,–,"5,0 mg/kg",–
CNC1=Nc2ccc(Cl)cc2C(c2ccccc2)=[N+]([O-])C1 [Chlorodiazepoxide],10.0,–,"56,0 mg/kg",–,–
O=C(CCCN1CCC(O)(c2ccc(Cl)cc2)CC1)c1ccc(F)cc1 [Haloperidol],–,"0,6 mg/kg",–,–,–
CN1C(=O)CN=C(c2ccccc2)c2cc(Cl)ccc21 [Diazepam],–,–,"23,0 mg/kg",–,–
